Reference: patent publication US10227348B2, “Use of 10H-benzo[g]pteridine-2,4-dione derivatives” (TriOptoTec GmbH, priority 2011, dated 2019)

How the values were obtained:
[1] = system: Escherichia coli (ATCC number: 25922); test: Phototoxicity test (photodynamic inactivation, CFU/ml by Miles and Misra); format: cell-based; settings: E. coli; irradiation at 10.5 J/cm^2 (50 mW/cm^2, 210 sec, 390-500 nm); incubation 10 min or 30 min; CFU/ml after 24 h
Procedure: (§1) A sample of the bacterial strain Staphylococcus aureus (ATCC number: 25923) or Escherichia coli (ATCC number: 25922) was taken from a cryogenically frozen culture, isolated on Müller-Hinton agar plates and cultivated under aerobic conditions at 37° C. in an overnight culture. Thereafter, 5 ml of Müller-Hinton liquid medium were inoculated with a smear of the bacterial culture (single colony) and incubated at 37° C. overnight. The bacterial suspension thus obtained was centrifuged at 2500 rpm for 10 min and the bacterial pellet obtained was resuspended in 5 ml of sterile PBS. The optical density of the bacterial suspensions for the phototoxicity tests was OD600nm=0.6, which corresponds to a bacteria count of ˜[…] bacteria per ml. The biochemical analysis and resistance determination of the bacteria were conducted with the VITEK2 system according to the M100-S14 guidelines from the NCCLS (2004).
(§2) 200 μl of a bacterial suspension (bacterial density: 10^8-10^12/ml) were incubated with 200 μl of each of various concentrations of the photosensitizers to be tested at room temperature for 10 min or 30 min. Thereafter, the bacteria were washed twice with distilled water and resuspended in 200 μl of distilled water, and the entire volume was transferred to a 96-well microtiter plate and then irradiated. The photosensitizers used were dissolved in distilled water and various dilution series were prepared (0 μM, 1 μM, 10 μM, 100 μM).
(§3) For sensitization, the Omnicure Series 2000 lamp (Photonics Solutions Inc., Edinburgh, UK) was used, which emits light from a range from 390 nm to 500 nm and has emission maxima Emax at 405 nm and 436 nm. The power applied in each case was 50 mW/cm^2.
(§4) Irradiated and unirradiated samples were used as controls. Likewise run were bacterial suspensions incubated only with photosensitizer (dark control).
(§5) The determination of the colony-forming units (CFU) per ml was conducted by the method published by Miles and Misra (Miles, A A; Misra, S S, Irwin, J O (1938 November). “The estimation of the bactericidal power of the blood.”. The Journal of hygiene 38 (6): 732-49). For this purpose, serial dilutions from 10^−2 to 10^−9 of the corresponding bacterial suspension were prepared. 3×20 μl of each of the corresponding bacterial dilutions were then dripped onto Müller-Hinton plates and incubated at 37° C. for 24 h. Thereafter, the number of surviving colony-forming units (CFU) was determined. Each of the experiments was repeated three times.
(§6) The effectiveness of phototoxicity with respect to bacteria after irradiation was defined according to the following guidelines for hand hygiene in the health sector (Boyce, J. M., and D. Pittet. 2002. Guideline for Hand Hygiene in Health-Care Settings: recommendations of the Healthcare Infection Control Practices Advisory Committee and the HICPAC/SHEA/APIC/IDSA Hand Hygiene Task Force. Infect Control Hosp Epidemiol 23: p. 3-40): • reduction in the CFU/ml by 1 log10 stage≙90% effectiveness • reduction in the CFU/ml by 3 log10 stages≙99.9% effectiveness • reduction in the CFU/ml by 5 log10 stages≙99.999% effectiveness
(§7) For effective inactivation, the decrease of ≥3 log10 stages can therefore be adopted, and S. aureus and E. coli were chosen as examples of representatives from the group of the Gram-positive and Gram-negative bacteria (see Boyce J. M and D. Pittet 2009).

[2] = system: Staphylococcus aureus (ATCC number: 25923); test: as above; format: cell-based; settings: S. aureus; irradiation at 10.5 J/cm^2 (50 mW/cm^2, 210 sec, 390-500 nm); incubation 10 min or 30 min; CFU/ml after 24 h
Procedure: as §1, §2, §3, §4, §5, §6, §7

COCCn1c2nc(=O)n(CCN)c(=O)c-2nc2cc(C)c(C)cc21 [FL-03]
Required concentration to achieve a reduction by ≥3 log10 stages (decrease by 99.9%) [1]: >100^(*^) μM | Required concentration to achieve a reduction by ≥3 log10 stages (decrease by 99.9%) [2]: 10 μM

Cc1cc2nc3c(=O)[nH]c(=O)nc-3n(CCN)c2cc1C [FL-01]
Required concentration to achieve a reduction by ≥3 log10 stages (decrease by 99.9%) [1]: 10 μM | Required concentration to achieve a reduction by ≥3 log10 stages (decrease by 99.9%) [2]: 10 μM

COCCn1c2nc(=O)n(CCNC(=N)N)c(=O)c-2nc2cc(C)c(C)cc21 [FL-04]
Required concentration to achieve a reduction by ≥3 log10 stages (decrease by 99.9%) [1]: >100^(*^) μM | Required concentration to achieve a reduction by ≥3 log10 stages (decrease by 99.9%) [2]: 50 μM

Cc1cc2nc3c(=O)[nH]c(=O)nc-3n(CCOCCOCCN)c2cc1C [FL-05]
Required concentration to achieve a reduction by ≥3 log10 stages (decrease by 99.9%) [1]: >100^(*^) μM | Required concentration to achieve a reduction by ≥3 log10 stages (decrease by 99.9%) [2]: 100 μM
